According to the supplement of paper PMC7017272:
± gives the standard deviation of the averaged measurements.

How the values were obtained:
UT-SCC-42A [1] = assay: maximal % inhibition of viability relative to DMSO; higher = stronger effect; conditions: culture condition: plastic 2D (no matrix); treatment time: 3 days
Experimental: (§1)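 HNSCC cell lines (500 cells/well, 384-well) were cultured on plastic, on top of (2D) or embedded (3D) in Matrigel or human leiomyoma matrix Myogel (500 ug/mL; Myogel 3D mixed with rat collagen I). Cells were treated for 3 days with 5 ten-fold concentrations of each drug, and viability was read by CellTiter-Glo. Viability was normalised to DMSO and benzethonium chloride controls and fitted with the FIMM DSRT pipeline to give IC50 (nM), maximal % inhibition and DSS. Suffixes _1/_2/_3 are replicates. Only inhibition-mode (IC50) fits are kept.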

UT-SCC-44 = assay: as above; conditions: treatment time: 3 days
Experimental: as §1

UT-SCC-81 [2] = assay: as above; conditions: treatment time: 3 days
Experimental: as §1

UT-SCC-106A = assay: as above; conditions: treatment time: 3 days
Experimental: as §1

UT-SCC-28 [3] = assay: as above; conditions: treatment time: 3 days
Experimental: as §1

UT-SCC-24B = assay: relative IC50 (midpoint of the fitted curve; maximal inhibition may be below 50%); higher = less potent; conditions: culture condition: embedded in Myogel + collagen I; treatment time: 3 days
Method in brief: (§2)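 Viability was read with CellTiter-Glo 2.0 luminescence and scaled against vehicle (0.1% DMSO) and cell-killing control wells. The assay used HPV-negative HNSCC cell lines at 500 cells/well in 384-well plates, grown on plastic, on Matrigel or Myogel coatings (500 µg/mL), or embedded in Matrigel or Myogel plus rat collagen I, and treated for 3 days at five 10-fold concentrations. IC50, maximal inhibition and drug sensitivity score were derived from percent-inhibition dose–response curves fitted in the FIMM pipeline.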

UT-SCC-14 = assay: as above; conditions: treatment time: 3 days
Method in brief: as §2

UT-SCC-8 = assay: as above; conditions: culture condition: embedded in Myogel + collagen I; treatment time: 3 days
Method in brief: as §2

UT-SCC-42A [4] = assay: as above; conditions: treatment time: 3 days
Method in brief: as §2

UT-SCC-81 [5] = assay: as above; conditions: treatment time: 3 days
Method in brief: as §2

UT-SCC-28 [6] = assay: as above; conditions: culture condition: embedded in Myogel + collagen I; treatment time: 3 days
Method in brief: as §2

[7] = culture condition: embedded in Matrigel
[8] = culture condition: embedded in Myogel + collagen I
[9] = culture condition: on top of Matrigel
[10] = culture condition: on top of Myogel
[11] = culture condition: plastic 2D (no matrix)

CO[C@H]1C[C@@H]2CC[C@@H](C)[C@@](O)(O2)C(=O)C(=O)N2CCCC[C@H]2C(=O)O[C@H]([C@H](C)C[C@@H]2CC[C@@H](OP(C)(C)=O)[C@H](OC)C2)CC(=O)[C@H](C)/C=C(\C)[C@@H](O)[C@@H](OC)C(=O)[C@H](C)C[C@H](C)/C=C/C=C/C=C/1C [Ridaforolimus]
maximal % inhibition of viability (UT-SCC-42A [1]): 35.8 ± 5%
maximal % inhibition of viability (UT-SCC-44; [7]): 32.8 ± 14%
maximal % inhibition of viability (UT-SCC-44; [8]): 44.1 ± 8.6%
maximal % inhibition of viability (UT-SCC-44; [9]): 39.2 ± 2.1%
maximal % inhibition of viability (UT-SCC-44; [10]): 36.9 ± 4.2%
maximal % inhibition of viability (UT-SCC-44; [11]): 33.7 ± 6.2%
maximal % inhibition of viability (UT-SCC-81 [2]; [7]): 50 ± 11%
maximal % inhibition of viability (UT-SCC-81 [2]; [8]): 64 ± 9.1%
maximal % inhibition of viability (UT-SCC-81 [2]; [9]): 43.9 ± 1.1%
maximal % inhibition of viability (UT-SCC-81 [2]; [10]): 54.6 ± 4.2%
maximal % inhibition of viability (UT-SCC-81 [2]; [11]): 48.4 ± 5.3%
maximal % inhibition of viability (UT-SCC-106A; [7]): 35 ± 4.2%
maximal % inhibition of viability (UT-SCC-106A; [8]): 27.4 ± 2.9%
maximal % inhibition of viability (UT-SCC-106A; [9]): 34.5 ± 4%
maximal % inhibition of viability (UT-SCC-106A; [10]): 27.5 ± 2.6%
maximal % inhibition of viability (UT-SCC-106A; [11]): 41 ± 1.9%
maximal % inhibition of viability (UT-SCC-28 [3]; [7]): 30.9 ± 9.3%
maximal % inhibition of viability (UT-SCC-28 [3]; [8]): 31.5 ± 18%
maximal % inhibition of viability (UT-SCC-28 [3]; [9]): 34.8 ± 4.5%
maximal % inhibition of viability (UT-SCC-28 [3]; [11]): 33.4 ± 2.9%
relative IC50 (UT-SCC-24B): 1.48 nM
relative IC50 (UT-SCC-14; [7]): 0.761 nM
relative IC50 (UT-SCC-14; [8]): 0.711 nM
relative IC50 (UT-SCC-14; [10]): 0.632 nM
relative IC50 (UT-SCC-14; [11]): 0.876 nM
relative IC50 (UT-SCC-8): 6.75 nM
relative IC50 (UT-SCC-42A [4]; [7]): 6.44 nM
relative IC50 (UT-SCC-42A [4]; [8]): 6.31 nM
relative IC50 (UT-SCC-42A [4]; [9]): 1.65 nM
relative IC50 (UT-SCC-42A [4]; [11]): 4.54 nM
relative IC50 (UT-SCC-81 [5]; [8]): 2.46 nM
relative IC50 (UT-SCC-81 [5]; [9]): 1.38 nM
relative IC50 (UT-SCC-28 [6]): 4.01 nM
